Patent US7465814B2, “Sulfonate compound and fluorescent probe using the same” (priority 2003, dated 2008)

Experiments:
[1] = Capability as superoxide-detecting fluorescent probe (reactivity with superoxide); type: biochemical
Experimental: Then, by mainly using the compound 1d as a testing compound, the capability thereof as a superoxide-selective fluorescent probe was evaluated, and moreover, a test in a cell system also was conducted. These tests will be described below.
Thus, it is thought that each compound synthesized from a combination of: a phenolic colorant; and a 2,4-dinitrobenzenesulfonyl group, a 4-trifluoromethyl-2-nitrobenzenesulfonyl group or a 4-nitrobenzenesulfonyl group can be used as a superoxide-detecting fluorescent probe similarly. An example of the usage thereof will be shown in Scheme 8 below. Furthermore, it can be expected that a compound for a fluorescent probe having characteristics that are suitable for its application purpose can be designed and developed freely, by designing the compound of the present invention freely within the limitation defined by the general formula (I) and using the fluorescence mechanism developed by the inventors of the present invention, without being limited to the above-described combinations. Examples of the application purpose of the compound of the present invention are varied, including an application to a faintly coloring technique using superoxide.

[2] = Fluorescent response to XO-HPX system, 96-well microplate (Table 1); type: biochemical; conditions: relative fluorescence intensity, blank = 10, probe 21.3 μM, 10 minutes
Experimental: (§1) Moreover, in other conditions than those of the above-described tests, reactivity of all of the compounds 1a to 1d with H2O2, other various kinds of nucleophilic agents, reducing agents and the like also was tested, respectively. More specifically, fluorescent responses of 1a to 1d with respect to a XO-HPX system, a XO-HPX-SOD system, H2O2, ascorbic acid, 1,4-hydroquinone, propylamine, diethylamine, glucose, esterase, a cytochrome P450 reductase+NADPH system, and a diaphorase+NADH system were measured, respectively. Operational processes thereof will be described below. Firstly, 1a to 1d and the above-described reagents were dissolved in HEPES of 10 mM having a pH of 7.4 so as to prepare solutions, respectively. Next, a 96 wellmicroplate was provided, where any of the solutions of 1a to 1d (25 μM, 170 μL) was poured into each of the wells, and furthermore, 30 μL of a blank solution or 30 μL of the solution of the reagent to be reacted therewith was added thereto. Final concentrations of the solutions in the wells were adjusted so that concentrations of the solutions of 1a to 1d respectively could be 21.3 μM, that of XO could be 13.1 mU/mL, those of HPX, H2O2, ascorbic acid, 1,4-hydroquinone, propylamine, diethylamine, glucose, NADPH and NADH respectively could be 50 μM, that of cytochrome P450 reductase could be 68 mU/mL, that of diaphorase could be 65 mU/mL, and that of esterase could be 0.5 U/mL, respectively. Then, after they reacted in the wells at 37° C. for 10 minutes, fluorescent responses were measured respectively. Fluorescence intensity measurement was conducted by using an ETC-272 Peltier thermostatted single cell holder (trade name) manufactured by JASCO Corporation or a SpectraMax GeminiEM fluorescence plate reader (trade name) manufactured by Molecular Devices Corporation provided with a FP-750 spectrofluorometer (trade name) manufactured by JASCO Corporation, and by setting excitation wavelengths and emission wavelengths so that those of 1a, 1b and 1c respectively could be 485 nm and 515 nm, and those of 1d respectively could be 511 nm and 540 nm.

[3] = Fluorescent response to H2O2 (Table 1); type: biochemical; conditions: relative fluorescence intensity, blank = 10; probe 21.3 μM, H2O2 50 μM, 37° C., 10 minutes
Experimental: as §1

[4] = Fluorescent response to glucose (Table 1); type: biochemical; conditions: relative fluorescence intensity, blank = 10; probe 21.3 μM, glucose 50 μM, 37° C., 10 minutes
Experimental: as §1

[5] = test system: neutrophils stimulated by phorbol myristate acetate (PMA); experiment: Superoxide detection in PMA-stimulated neutrophils (FIG. 2, FIG. 3); type: cell-based, human; conditions: probe 25 μM solution 50 μL, PMA 0.64 μM solution 50 μL, 37° C., 120 minutes
From the text: It is known that, if neutrophils are stimulated by phorbol ester, superoxide is produced. […] A specific testing method will be described below.
Firstly, whole blood donated by a good-health volunteer was heparinized, and it was subjected to centrifugal separation after adding a Mono-Poly resolving medium manufactured by Dainippon Pharmaceutical Co. Ltd. thereto. After the separation, cells were washed with PBS (−) twice, were suspended again at a concentration of 1.0×10^6 or 1.0×10^5 cells/mL by using PBS (+), and were maintained under an ice-cold condition until they were used. […] Fluorescence intensity measurement was conducted immediately (measurement at the time 0), and thereafter, incubation was conducted at 37° C. for 120 minutes. During the incubation, a change of the fluorescence intensity of the cells was measured once every 30 minutes. All of the measurements were conducted by using a CytoFluor II multiwell fluorescence plate reader (trade name) manufactured by PerSeptive Biosystems, Inc. in the U.S., by setting an excitation filter and an emission filter at 485±20 nm and 530±25 nm, respectively.
A horizontal axis of the graph denotes an incubation time (minute), and a vertical axis thereof denotes a fluorescence intensity (au). […]

O=C1OC2(c3ccccc31)c1cc(F)c(OS(=O)(=O)c3ccc([N+](=O)[O-])cc3[N+](=O)[O-])c(F)c1Oc1c2cc(F)c(OS(=O)(=O)c2ccc([N+](=O)[O-])cc2[N+](=O)[O-])c1F [Compound 1d]
fluorescence response by reacting with superoxide [1]: particularly superior in sensitivity | fluorescent response, XO—HPX ([2]; XO 13.1 mU/mL, HPX 50 μM, HEPES pH 7.4, 37° C.): 554 | fluorescent response, XO—HPX—SOD ([2]; XO-HPX with SOD, 37° C.): 60 | fluorescent response, H2O2 [3]: 11 | fluorescent response, glucose [4]: 10 | detection of superoxide from PMA-stimulated neutrophils [5]: could detect superoxide with high sensitivity in a cell system also
